Measured values taken from ChEMBL document CHEMBL4699482, “Synthesis and SAR of a series of mGlu NAMs based on an ethyl-8-methoxy-4-(4-phenylpiperazin-1-yl)quinoline carboxylate core” (Bioorg Med Chem Lett, 2020).

Experiments:
[1] = target: Metabotropic glutamate receptor 7 (Rattus norvegicus, UniProt P35400); test: (§1) Negative allosteric modulation of rat mGlu7 receptor expressed in HEK cells co-expressing Galpha15 assessed as reduction in calcium mobilization incubated for 142 secs prior to glutamate addition and after 120 secs treated with L-AP4 and measured after 40 secs by Fluo-4 AM dye based fluorescence assay; format: functional, cell-based
[2] = target: Metabotropic glutamate receptor 7 (Rattus norvegicus) (UniProt P35400); test: as §1, with “assessed as minimum L-AP4 response by measuring reduction in” for “assessed as reduction in”, “fluorescence assay relative to L-AP4” for “fluorescence assay”; format: functional, cell-based; parameters: scale not given: the % may be the effect or the level left; conditions: time 302.0 sec
[3] = Fraction unbound in rat plasma at 5 uM incubated for 4 hrs by equilibrium dialysis method; format: ADME, cell-free
[4] = Fraction unbound in mouse plasma at 5 uM incubated for 4 hrs by equilibrium dialysis method; format: ADME, cell-free
[5] = Fraction unbound in rat brain homogenate at 5 uM incubated for 6 hrs by equilibrium dialysis method; format: ADME, tissue-based
[6] = Fraction unbound in mouse brain homogenate at 5 uM incubated for 6 hrs by equilibrium dialysis method; format: ADME, tissue-based
[7] = Fraction unbound in human plasma at 5 uM incubated for 4 hrs by equilibrium dialysis method; format: ADME, cell-free
[8] = target: Metabotropic glutamate receptor 4 (Homo sapiens, UniProt Q14833); test: Negative allosteric modulation of mGlu4 receptor (unknown origin)
[9] = target: Metabotropic glutamate receptor 8 (Homo sapiens, UniProt O00222); test: Negative allosteric modulation of mGlu8 receptor (unknown origin)
[10] = filed as negative allosteric modulator

Sequence of Metabotropic glutamate receptor 7 (Rattus norvegicus) (P35400 whole entry): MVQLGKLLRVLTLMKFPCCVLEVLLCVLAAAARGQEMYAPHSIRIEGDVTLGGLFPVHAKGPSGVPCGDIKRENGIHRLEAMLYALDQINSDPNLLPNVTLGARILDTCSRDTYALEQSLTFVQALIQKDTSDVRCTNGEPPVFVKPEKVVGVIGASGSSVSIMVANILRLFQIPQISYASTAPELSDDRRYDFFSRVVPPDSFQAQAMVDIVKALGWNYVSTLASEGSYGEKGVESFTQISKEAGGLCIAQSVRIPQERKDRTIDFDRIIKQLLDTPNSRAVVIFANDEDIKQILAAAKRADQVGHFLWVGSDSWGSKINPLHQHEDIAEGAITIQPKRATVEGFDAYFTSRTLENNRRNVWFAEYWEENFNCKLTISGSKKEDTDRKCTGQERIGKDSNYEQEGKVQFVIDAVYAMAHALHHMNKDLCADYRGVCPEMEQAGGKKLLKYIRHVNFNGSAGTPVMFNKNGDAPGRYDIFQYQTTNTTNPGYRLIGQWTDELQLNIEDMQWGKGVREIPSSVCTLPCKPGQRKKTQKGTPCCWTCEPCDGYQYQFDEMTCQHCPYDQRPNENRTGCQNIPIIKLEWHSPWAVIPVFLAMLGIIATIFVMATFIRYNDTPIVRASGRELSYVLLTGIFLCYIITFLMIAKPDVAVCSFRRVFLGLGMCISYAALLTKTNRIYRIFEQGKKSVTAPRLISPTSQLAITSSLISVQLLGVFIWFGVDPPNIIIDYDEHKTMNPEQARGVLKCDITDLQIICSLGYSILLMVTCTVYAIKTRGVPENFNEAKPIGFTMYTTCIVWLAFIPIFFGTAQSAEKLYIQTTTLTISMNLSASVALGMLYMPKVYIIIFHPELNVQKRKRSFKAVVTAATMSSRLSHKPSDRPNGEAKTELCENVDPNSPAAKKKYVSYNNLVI
Sequence of Metabotropic glutamate receptor 7 (P35400 whole entry): as above
Sequence of Metabotropic glutamate receptor 8 (O00222 whole entry): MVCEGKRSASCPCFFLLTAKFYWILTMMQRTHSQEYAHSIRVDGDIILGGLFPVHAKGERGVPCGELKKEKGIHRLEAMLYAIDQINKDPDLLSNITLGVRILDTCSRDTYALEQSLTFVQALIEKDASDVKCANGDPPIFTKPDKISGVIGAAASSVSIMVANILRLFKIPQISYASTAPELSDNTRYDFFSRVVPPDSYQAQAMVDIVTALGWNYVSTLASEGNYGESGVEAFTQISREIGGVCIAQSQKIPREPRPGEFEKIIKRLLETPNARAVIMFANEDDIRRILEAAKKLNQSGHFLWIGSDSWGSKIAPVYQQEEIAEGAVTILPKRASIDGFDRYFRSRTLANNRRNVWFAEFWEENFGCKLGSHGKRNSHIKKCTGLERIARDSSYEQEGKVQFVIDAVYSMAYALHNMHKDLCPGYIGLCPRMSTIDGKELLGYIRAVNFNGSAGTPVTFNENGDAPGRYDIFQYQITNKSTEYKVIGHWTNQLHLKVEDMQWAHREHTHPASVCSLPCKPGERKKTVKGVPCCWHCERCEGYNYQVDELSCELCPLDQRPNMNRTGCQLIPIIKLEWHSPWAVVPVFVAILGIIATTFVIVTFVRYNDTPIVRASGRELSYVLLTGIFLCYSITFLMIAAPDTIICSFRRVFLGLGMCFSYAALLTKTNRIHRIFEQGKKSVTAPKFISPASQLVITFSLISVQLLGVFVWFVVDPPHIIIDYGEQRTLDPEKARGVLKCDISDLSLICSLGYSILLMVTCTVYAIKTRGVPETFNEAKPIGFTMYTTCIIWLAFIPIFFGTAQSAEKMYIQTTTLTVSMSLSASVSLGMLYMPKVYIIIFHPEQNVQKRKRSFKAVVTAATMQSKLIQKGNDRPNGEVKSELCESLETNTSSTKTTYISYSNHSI
Sequence of Metabotropic glutamate receptor 4 (Q14833 whole entry): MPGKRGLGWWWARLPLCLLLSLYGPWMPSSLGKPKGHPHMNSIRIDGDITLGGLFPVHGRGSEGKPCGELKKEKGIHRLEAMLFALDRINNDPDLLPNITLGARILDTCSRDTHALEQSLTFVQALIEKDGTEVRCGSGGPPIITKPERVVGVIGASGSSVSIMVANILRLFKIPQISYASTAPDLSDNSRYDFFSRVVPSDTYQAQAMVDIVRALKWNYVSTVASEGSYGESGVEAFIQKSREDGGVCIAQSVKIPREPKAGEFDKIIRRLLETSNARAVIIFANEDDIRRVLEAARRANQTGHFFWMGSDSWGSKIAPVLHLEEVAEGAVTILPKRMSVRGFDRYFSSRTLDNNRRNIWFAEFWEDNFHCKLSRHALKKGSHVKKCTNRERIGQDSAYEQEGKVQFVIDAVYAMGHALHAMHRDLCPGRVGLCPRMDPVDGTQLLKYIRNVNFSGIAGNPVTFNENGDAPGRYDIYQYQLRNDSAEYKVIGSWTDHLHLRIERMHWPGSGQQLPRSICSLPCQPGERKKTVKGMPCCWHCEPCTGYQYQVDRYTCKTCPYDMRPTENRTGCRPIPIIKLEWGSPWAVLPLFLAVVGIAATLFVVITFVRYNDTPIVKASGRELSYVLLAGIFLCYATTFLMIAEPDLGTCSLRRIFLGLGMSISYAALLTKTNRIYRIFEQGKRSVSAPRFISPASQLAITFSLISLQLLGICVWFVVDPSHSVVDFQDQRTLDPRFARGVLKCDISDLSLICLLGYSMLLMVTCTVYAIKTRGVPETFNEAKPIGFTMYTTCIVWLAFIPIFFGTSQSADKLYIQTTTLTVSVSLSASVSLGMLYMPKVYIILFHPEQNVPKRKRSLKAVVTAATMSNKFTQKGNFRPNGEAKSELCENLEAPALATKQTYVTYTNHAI

IC50 [1] [nM]	Activity [2, 10] [%]	Structure (SMILES)	further results
> 30000		CCOC(=O)c1cnc2c(OC)cccc2c1N1CCN(c2cccs2)CC1	
3000	11	CCOC(=O)c1cnc2c(OC)cccc2c1N1CCN(c2nccnc2OC)CC1	
350	3.6	CCOC(=O)c1cnc2c(OC)cccc2c1-c1cnc(-c2ccccc2OC)c(OC)c1	Fu [3]: 0.01; Fu [4]: 0.01; Fu [5]: 0.04; Fu [6]: 0.04
3600	9.6	CCOC(=O)c1cnc2c(OC)cccc2c1C1=CCN(c2ccccc2OC)CC1	
> 30000		CCOC(=O)c1ccc2c(OC)cccc2c1N1CCN(c2ccccc2OC)CC1	
2900	4.2	CCOC(=O)c1cnc2c(OC)cccc2c1-c1ccc(-c2ccccc2OC)cc1	Fu [3]: < 0.001; Fu [7]: < 0.001
> 30000		CCOC(=O)c1cnc2c(OC)cccc2c1N1CC2(CN(c3ccccc3OC)C2)C1	
4500	24	CCOC(=O)c1cnc2ccsc2c1N1CCN(c2ccccc2OC)CC1	
1300	8.6	CCOC(=O)c1cnc2c(OC)cccc2c1N1CCN(c2ccccc2OC)C(C)C1 (racemic)	
880	3.5	CCOC(=O)c1cnc2c(OC)cc(OC)cc2c1-c1ccc(-c2ccccc2OC)nc1	
4200	14	CCOC(=O)c1cnc2c(OC)cccc2c1N1CCN(c2ccccc2C#N)CC1	
810	5	CCOC(=O)c1cnc2c(OC)cc(OC)cc2c1-c1ccc(-c2ccccc2OCC)nc1	
4200	13	CCOC(=O)c1cnccc1N1CCN(c2ccccc2OC)CC1	
510	4.7	CCOC(=O)c1cnc2c(OC)cccc2c1N1CCN(c2ccccc2SC)CC1	
4500	26	CCOC(=O)c1cnc2sccc2c1N1CCN(c2ccccc2OC)CC1	
1500	10	CCOC(=O)c1cnc2c(OC)cccc2c1N1CCN(c2cccnc2OC)CC1	
2400	12	CCOC(=O)c1cnc2c(OC)cccc2c1-c1cnc(-c2ccccc2OC)nc1	
1500	5.8	CCOC(=O)c1cnc2c(OC)cccc2c1-c1ccc(-c2ccccc2OC(C)C)nc1	
2300	6.5	CCOC(=O)c1cnc2c(OC)cccc2c1N1CCN(c2ccccc2OC(C)C)CC1	
2800	6.8	CCOC(=O)c1cnc2c(OC)cccc2c1-c1ccc(-c2ccccc2OC)cn1	
> 10000	41	CCOC(=O)c1cnc2c(OC)cccc2c1C1CC2CC(C1)N2c1ccccc1OC (stereo unspecified)	
647	5.6	CCOC(=O)c1cnc2c(OC)cccc2c1N1CCN(c2ccccc2OC)CC1	IC50 [8]: > 30 µM; IC50 [9]: > 30 µM; Fu [3]: 0.016; Fu [7]: 0.018

IC50 [1] [nM]	Activity [2, 10] [%]	Structure (SMILES)	further results
> 10000	41	CCOC(=O)c1cnc2c(OC)cccc2c1C1CCN(c2ccccc2OC)CC1	
6100	12	CCOC(=O)c1cnc2c(OC)cccc2c1N1CCN(c2ccccc2F)CC1	
2100	24	CCOC(=O)c1cnc2c(OC)cccc2c1-c1cc(F)c(-c2ccccc2OC)nc1OC	
1500	6.1	CCOC(=O)c1cnc2c(OC)cccc2c1N1CCN(c2ccccc2OC)CC1C (racemic)	
1200	6.5	CCOC(=O)c1cnc2c(OC)cccc2c1-c1ccn(Cc2ccccc2OC)c1	
4400	9.6	CCOC(=O)c1cnc2c(OC)cccc2c1N(C)CCN(C)c1ccccc1OC	
410	5.6	CCOC(=O)c1cnc2c(OC)cccc2c1-c1ccc(-c2ccccc2SC)nc1	
> 30000		CCOC(=O)c1cnc2ccccc2c1N1CCN(c2ccccc2OC)CC1	
> 30000		CCOC(=O)c1cnc2c(OC)cccc2c1N1CCN(c2ccnn2C)CC1	
2100	15	CCOC(=O)c1cnc2c(OC)cccc2c1N1CCN(c2cc(F)ccc2OC)CC1	
> 30000		CCOC(=O)c1cnc2c(OC)cccc2c1N1CCN(c2ccccc2Cl)CC1	
370	6.3	CCOC(=O)c1cnc2c(OC)cccc2c1-c1ccc(-c2ccccc2OCC)nc1	
600	6.5	CCOC(=O)c1cnc2c(OC)cccc2c1-c1ccc(-c2ccccc2OC)nc1	
800	11	CCOC(=O)c1cnc2c(OC)cccc2c1N1CCN(c2c(OC)cccc2OC)CC1	
> 10000	41	CCOC(=O)c1cnc2c(OC)cccc2c1N1CCN(c2ccccc2C)CC1	
5100	8.7	CCOC(=O)c1cnc2c(OC)cccc2c1N1CCN(c2ccccc2OCC)CC1	
> 30000		CCOC(=O)c1cnc2c(OC)cccc2c1N1CCN(c2ccccc2OC(F)(F)F)CC1	
670	3.9	CCOC(=O)c1cnc2c(OC)cc(OC)cc2c1N1CCN(c2ccccc2OC)CC1	
> 10000		CCOC(=O)c1cnc2c(OC)cccc2c1N1CC2CN(c3ccccc3OC)CC2C1 (stereo unspecified)	Activity [2]: 57%
540	5.1	CCOC(=O)c1cnc2c(OC)cccc2c1-c1cnc(-c2ccccc2OC)cn1	
> 30000		CCOC(=O)c1cnc2c(OC)cccc2c1N1CCN(c2cncs2)CC1	
1900	9	CCOC(=O)c1cnc2c(OC)cccc2c1N1CCN(c2ccc(OC)cc2OC)CC1	

Structure (SMILES)	IC50 [1] [nM]	Activity [2, 10] [%]	further results
CCOC(=O)c1cnc2c(OC)cccc2c1C1C2CC1CN(c1ccccc1OC)C2 (stereo unspecified)	> 30000		
